From article PMC9130233, “An inhibitor of RORγ for chronic pulmonary obstructive disease treatment” (Scientific Reports, 2022)
Marks after values point to notes of the source that are not given here.

What was measured:
human RORγ LBD = molecular target: T1, human RORγ LBD (Homo sapiens, UniProt P51449); assay: RORγt-LBD co-activator ligand binding TR-FRET assay, human; settings: n = 15
T1 construct: RORC-LBD region 229-497aa; made in house; host or cells: Escherichia coli BL21-DE3
Source text: To identify small molecule RORγ inhibitors, we conducted in vitro screening using a TR-FRET binding assay to determine the inhibition of RORγ with a series of different compounds. With extensive effort and from hit identification to lead optimization, PCCR-1 was identified[29] (Fig. 1A). Based on the homology of the ligand binding domains (LBD) between different ROR isoforms (hRORα, hRORβ and hRORγ), slight variations have been observed in the LBD regions which possibly lead to differences in competitive binding between the isoforms (Fig. 1B). Simultaneous binding of a tracer and antibody results in an increase in fluorescence resonance energy transfer (FRET), which decreases with displacement of the tracer upon inhibitor binding.
The human and mouse RORγt cDNA clones were obtained from OriGene (MD USA). […] The next day, plate was read on Infinite F500 reader (Magellan Tecan Switzerland). […] The percent activity of each dilution was determined as the ratio of background corrected signal to the background corrected signal of wells receiving only DMSO. IC50 values were determined by fitting percent inhibition data in GraphPad Prism (version-5.01) software.

human RORγt = molecular target: T2, human RORγt (Homo sapiens, UniProt P51449); assay: RORγ transactivation assay in transfected HEK293 cells; format: cell-based; settings: HEK293, n = 4; read-out: potency, inhibition of human RORγt in transactivation assay
T2 construct: Gal4-DBD human RORγt hinge LBD/pcDNA 3.1; expressed in transfected cells; host or cells: HEK293
T2 sequence (P51449 97-518): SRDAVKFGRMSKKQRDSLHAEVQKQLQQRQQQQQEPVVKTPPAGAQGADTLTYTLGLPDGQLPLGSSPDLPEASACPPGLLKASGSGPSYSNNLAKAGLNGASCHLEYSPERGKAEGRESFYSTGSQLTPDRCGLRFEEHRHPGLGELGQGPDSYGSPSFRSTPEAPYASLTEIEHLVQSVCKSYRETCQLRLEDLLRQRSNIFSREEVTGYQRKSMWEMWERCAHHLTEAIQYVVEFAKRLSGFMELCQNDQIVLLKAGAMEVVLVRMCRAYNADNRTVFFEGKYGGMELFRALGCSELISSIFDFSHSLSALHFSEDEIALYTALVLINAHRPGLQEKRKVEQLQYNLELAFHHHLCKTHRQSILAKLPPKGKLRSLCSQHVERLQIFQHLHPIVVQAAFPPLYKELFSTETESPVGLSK
Procedure: For RORg transactivation assay the HEK293 cells were seeded in 100 mm dish and transfected with 4.5 µg total DNA (2.25 µg of pGL4.31 Luc2/GAL4-UAS hygro and 2.25 µg Gal4-DBD human RORγt hinge LBD/pcDNA 3.1 and 0.112 µg of pRL-CMV using Effectene transfection reagent (Qiagen). After 16–20 h post transfection, cells were reseeded at the density of 0.05 M cells per well of 96 well plate in DMEM high glucose containing 2% charcoal stripped serum. 4–6 h post seeding, PCCR-1 treatment was given for 24 h, followed by cells lysis with 1X Passive Lysis buffer of Dual luciferase kit (Promega). The signal was detected after addition of stop and glo reagent of the kit in luminescence mode.

Kinases (~ 40 in no) = assay: Kinase panel (~ 40); format: biochemical; parameters: key: NSE No significant effect; V wk very weak (very low-level agonist activity seen with mPPARγ); settings: at 10 µM
Source text: Based on the homology of the ligand binding domains, 3 different isoforms of ROR (hRORα, hRORβ and hRORγ) are reported. Small variations in the LBD regions possibly lead to differences in competitive binding between the nuclear receptors of the ROR isoforms (Fig. 1b). Similar to the assessment of RORγ binding assay, TR-FRET binding assays were also used to assess the affinity of PCCR-1 for other ROR isoforms. […] This was reconfirmed in cellular functional assays for the selected isoforms and nuclear receptors using Gal4 DBD with luciferase reporter system from Indigo (PA, USA). […] In addition, both cellular agonist and antagonist effects as well as for enzyme activity were evaluated with a known reference compound for each target, using a radiolabeled method (Eurofins Cerep, France, Table 1).

[1] = 14-day dose-range inhalation toxicology study in Sprague Dawley rats; format: in vivo, rat
Procedure: Rats were exposed to PCCR-1 aerosols at 3.4, 10.8 and 32.1 mg/kg/day (delivered dose) for 60 min daily for 14 days using a snout only exposure technique via a modular stainless steel flow past inhalation chamber at indicated doses as mentioned in Table 3. No treatment-related findings noted, including myeloid:erythroid (M:E) ratios in any dose levels except minimal changes in the reticulocytes and adrenal glands.
The 14-day dose-range inhalation toxicology study was conducted at Charles River Laboratories Edinburgh Ltd, Elphinstone Research Centre, Tranent, East Lothian, EH33 2NE, UK, under the Home Office Project License No. PPL 70/8778, Toxicology of Pharmaceuticals. The UK Home Office controls scientific procedures on animals in the UK and does so by the issue of licences under the Animals (Scientific Procedures) Act 1986. The regulations conform to EU Directive 2010/63/EU and achieve the standard of care required by the US Department of Health and Human Services' Guide for the Care and Use of Laboratory Animals.
The toxicology study was done in SD (Sprague Dawley) rats that were exposed to PCCR-1 aerosol for 60 min daily at 3.4, 10.8 and 32.1 mg/kg/day (delivered dose) for 14 days using a snout only exposure technique via a modular stainless steel flow past inhalation chamber. A 60% w/w blend of PCCR-1 in Lactose LH201 was prepared by adding the appropriate amount of PCCR-1 to the appropriate amount of lactose. The estimated delivered doses were derived based on analytical aerosol concentration, and respiratory minute volume calculated based on body weight, exposure duration, and animal body weight (Supplementary section B).

[2] = Females (n = 5/group), 32.1 mg/kg/day
[3] = Males (n = 5/group), 32.1 mg/kg/day

T1 sequence (P51449 250-518): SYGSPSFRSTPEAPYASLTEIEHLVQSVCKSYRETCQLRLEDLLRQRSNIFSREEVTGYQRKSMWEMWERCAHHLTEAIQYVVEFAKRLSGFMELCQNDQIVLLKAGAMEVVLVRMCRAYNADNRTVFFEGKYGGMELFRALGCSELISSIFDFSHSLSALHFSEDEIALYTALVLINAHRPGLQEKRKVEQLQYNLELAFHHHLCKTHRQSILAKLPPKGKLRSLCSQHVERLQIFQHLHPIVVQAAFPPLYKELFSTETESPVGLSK

In the case of CCn1c(C(C)(C)Oc2ccc(F)cc2F)nc2cc(NC(=O)Cc3ccc(S(=O)(=O)CC)cc3)ccc21 [PCCR-1], the IC50 (human RORγ LBD) is reported as 34.5 nM, the IC50 (human RORγt) is reported as 111 nM and the “Kinases (~ 40 in no)” value (Kinases (~ 40 in no)) is reported as “NSE at 10 µM”. The “Microscopic changes: Hypertrophy; zona fasciculata, diffuse (animals affected)” value [1, 2] was 3, the “Microscopic changes: hypertrophy, Mild (animals affected)” value [1, 2] was 2 and the “Microscopic changes: hypertrophy, Minimal (animals affected)” value [1, 2] was 1. For the same compound, the “adrenal gland Absolute weight (mean ± SD)” value ([1]; Females, 32.1 mg/kg/day) was 0.0950 ± 0.0139 g, the “adrenal gland weight Relative to body weight (mean ± SD)” value ([1]; Females, 32.1 mg/kg/day) was 0.03168 ± 0.00549% and the “adrenal gland weight Relative to brain weight (mean ± SD)” value ([1]; Females, 32.1 mg/kg/day) was 4.657 ± 0.6176%. For the same compound, the “Reticulocyte count (mean ± SD)” value ([1]; Females, 32.1 mg/kg/day, P ≤ 0.01) was 295.4 ± 40.3* 10^9/L, the “Microscopic changes: Hypertrophy; zona fasciculata, diffuse (animals affected)” value [1, 3] was 0 and the “Microscopic changes: hypertrophy, Mild (animals affected)” value [1, 3] was 0. The “Microscopic changes: hypertrophy, Minimal (animals affected)” value [1, 3] was 0, the “Reticulocyte count (mean ± SD)” value ([1]; Males, 32.1 mg/kg/day) was 287.7 ± 62.6 10^9/L and the “adrenal gland Absolute weight (mean ± SD)” value ([1]; Males, 32.1 mg/kg/day) was 0.0581 ± 0.0083 g. For the same compound, the “adrenal gland weight Relative to body weight (mean ± SD)” value ([1]; Males, 32.1 mg/kg/day) was 0.01553 ± 0.00171%, the “adrenal gland weight Relative to brain weight (mean ± SD)” value ([1]; Males, 32.1 mg/kg/day) was 2.803 ± 0.3041% and the MTD at 14 days ([1]; Sprague Dawley, in vivo, inhaled or intranasal, rat, 14-day inhalation, read-out: maximum tolerated dose) was 32.1 mg/kg/day. The “Microscopic changes: hypertrophy, Minimal (animals affected)” value ([1]; female, Sprague-Dawley, rat, in vivo, 14 days) was 0, the “histopathological change of the adrenal gland” value ([1]; rat, in vivo) was “bilateral diffuse hypertrophy of the zona fasciculata” and the “reticulocyte count compared with the control group” value ([1]; rat, in vivo) was 1.09 fold.
